The values below come from patent US8981111B2 (priority 2008, dated 2015).

The first data set can be described thus: log P (HPLC/MS data of the preparation examples). The note with it: HPLC (LC-MS) method [b]: pH 2.7, 0.1% formic acid in water and acetonitrile, linear gradient 10% to 95% acetonitrile; EEC directive 79/831 Annex V.A8.
Consider `CC(C)C(=O)Nc1cccc(CON=C(c2cccs2)c2nccn2C)n1` [Example 415], for which the log p was 1.65^[b].
On to `Cn1ncnc1C(=NOCc1cccc(N2C(=O)c3ccccc3C2=O)n1)c1cccs1` [Example 416], for which the log p was 2.64^[b].
As to `Cn1cncc1C(=NOCc1cccc(N2C(=O)c3ccccc3C2=O)n1)c1ccsc1` [Example 417], the log p is 1.73^[b].
Consider `Cn1cncc1C(=NOCc1cccc(N2C(=O)c3ccccc3C2=O)n1)c1cccs1` [Example 420], for which the log p was 1.66^[b].
On the same count and under the same terms, the figure for `Cn1cncc1C(=NOCc1csc(N)n1)c1cccs1` [Example 421] is 0.22^[b].
The same measure, in the same setting: the figure for `Cn1cncc1C(=NOCc1csc(N)n1)c1ccsc1` [Example 422] is 0.45^[b].
The same measure, in the same setting: then `Cn1cncc1C(=NOCc1cccc(N)n1)c1cccs1` [Example 423], with 0.08^[b].
With `CCCCCOC(=O)Nc1cccc(CON=C(c2ccsc2)c2cncn2C)n1` [Example 425], the log p was 2.82^[b].
The same measure, in the same setting: then `CCCCCC(=O)Nc1nc(CON=C(c2ccsc2)c2cncn2C)cs1` [Example 428], with 1.99^[b]; and `CCCCCC(=O)Nc1nc(CON=C(c2cccs2)c2cncn2C)cs1` [Example 429], with 1.93^[b]; and `Cn1cncc1C(=NOCc1cccc(NC(=O)COc2ccccc2)n1)c1cccs1` [Example 431], with 1.94^[b].
The same measure, in the same setting: the figure for `CC(C)C(=O)Nc1nc(CON=C(c2cccs2)c2cncn2C)cs1` [Example 433] is 1.53^[b].
Still for that read-out and setting: the figure for `Cn1cncc1C(=NOCc1csc(NC(=O)COc2ccccc2)n1)c1cccs1` [Example 434] is 1.87^[b].
For the compound `Cn1cncc1C(=NOCc1cccc(NC(=O)COc2ccccc2)n1)c1ccsc1` [Example 435], the log p is 1.96^[b].
As for `Cn1cncc1C(=NOCc1cccc(NC(=O)C(C)(C)C)n1)c1ccsc1` [Example 436], the log p is 1.7^[b].
The same measure, in the same setting: then `CCCC(=O)Nc1cccc(CON=C(c2ccsc2)c2cncn2C)n1` [Example 437], with 1.52^[b]; and `CCCCCCC(=O)Nc1cccc(CON=C(c2ccsc2)c2cncn2C)n1` [Example 438], with 2.25^[b]; and `CC(C)C(=O)Nc1cccc(CON=C(c2ccsc2)c2cncn2C)n1` [Example 439], with 1.5^[b].
With `CCCCC(=O)Nc1cccc(CON=C(c2ccsc2)c2cncn2C)n1` [Example 440], the log p is 1.75^[b].
On the same count and under the same terms, then `CCCCCCCCCC(=O)Nc1cccc(CON=C(c2ccsc2)c2cncn2C)n1` [Example 441], with 3.02^[b].
Still for that read-out and setting: the figure for `CC(C)CC(=O)Nc1cccc(CON=C(c2ccsc2)c2cncn2C)n1` [Example 442] is 1.7^[b].
For the compound `Cn1cncc1C(=NOCc1cccc(NC(=O)C(C)(C)C)n1)c1cccs1` [Example 443], the log p was 1.7^[b].
Same read-out and setting: then `CCCC(=O)Nc1cccc(CON=C(c2cccs2)c2cncn2C)n1` [Example 445], with 1.5^[b]; and `CCCCCCCCCC(=O)Nc1cccc(CON=C(c2cccs2)c2cncn2C)n1` [Example 448], with 2.98^[b]; and `Cn1cncc1C(=NOCc1csc(NC(=O)C(C)(C)C)n1)c1cccs1` [Example 449], with 1.67^[b].
Still for that read-out and setting: then `CC(C)CC(=O)Nc1nc(CON=C(c2cccs2)c2cncn2C)cs1` [Example 450], with 1.66^[b]; and `CCCC(=O)Nc1nc(CON=C(c2cccs2)c2cncn2C)cs1` [Example 451], with 1.47^[b].
Still for that read-out and setting: the figure for `CCCCCCC(=O)Nc1nc(CON=C(c2cccs2)c2cncn2C)cs1` [Example 452] is 2.14^[b].
For `CCCCC(=O)Nc1nc(CON=C(c2cccs2)c2cncn2C)cs1` [Example 453], the log p is 1.7^[b].
Same read-out and setting: the figure for `CCCCCCCCCC(=O)Nc1nc(CON=C(c2cccs2)c2cncn2C)cs1` [Example 454] is 2.86^[b].
The same measure, in the same setting: the figure for `CCC(C(=O)Nc1cccc(CON=C(c2cccs2)c2cncn2C)n1)c1ccccc1` (centres unmarked) [Example 455] is 2.2^[b].
Take `Cn1cccc1C(=NOCc1cccc(N2C(=O)c3ccccc3C2=O)n1)c1ccc(Cl)nc1` [Example 463]: the log p is 3.78^[b].
On the same count and under the same terms, the figure for `Cn1cccc1C(=NOCc1cccc(N)n1)c1ccc(Cl)nc1` [Example 464] is 1.72^[b].
Same read-out and setting: then `Cn1ncnc1C(=NOCc1cccc(N2C(=O)c3ccccc3C2=O)n1)c1ncc(C(F)(F)F)cc1Cl` [Example 465], with 3.15^[b]; and `Cn1ncnc1C(=NOCc1cccc(N)n1)c1ncc(C(F)(F)F)cc1Cl` [Example 466], with 1.3^[b]; and `Cn1ncnc1C(=NOCc1cccc(NC(=O)Cc2ccccc2)n1)c1ncc(C(F)(F)F)cc1Cl` [Example 467], with 3.46^[b].
Same read-out and setting: the figure for `CCCCCC(=O)Nc1cccc(CON=C(c2ncc(C(F)(F)F)cc2Cl)c2ncnn2C)n1` [Example 468] is 3.85^[b]; for `CCCCCOC(=O)Nc1cccc(CON=C(c2ncc(C(F)(F)F)cc2Cl)c2ncnn2C)n1` [Example 469] it is 4.41^[b].
`Cn1ncnc1C(=NOCc1cccc(NC(=O)C(C)(C)C)n1)c1ncc(C(F)(F)F)cc1Cl` [Example 470]: the log p was 3.44^[b].
For `Cn1ncnc1C(=NOCc1cccc(NC(=O)CCc2ccccc2)n1)c1ncc(C(F)(F)F)cc1Cl` [Example 471], the log p was 3.73^[b].
The same measure, in the same setting: then `Cn1ncnc1C(=NOCc1nccc(N)n1)c1ncc(C(F)(F)F)cc1Cl` [Example 472], with 1.2^[b]; and `Cn1ncnc1C(=NOCc1csc(N)n1)c1ncc(C(F)(F)F)cc1Cl` [Example 473], with 1.56^[b].
The same measure, in the same setting: then `CCCCCC(=O)Nc1ccnc(CON=C(c2ncc(C(F)(F)F)cc2Cl)c2ncnn2C)n1` [Example 474], with 3.51^[b]; and `CCCCCOC(=O)Nc1ccnc(CON=C(c2ncc(C(F)(F)F)cc2Cl)c2ncnn2C)n1` [Example 475], with 3.8^[b]; and `Cn1ncnc1C(=NOCc1nccc(NC(=O)Cc2ccccc2)n1)c1ncc(C(F)(F)F)cc1Cl` [Example 476], with 3.13^[b].
The same measure, in the same setting: then `Cn1ncnc1C(=NOCc1nccc(NC(=O)CCc2ccccc2)n1)c1ncc(C(F)(F)F)cc1Cl` [Example 477], with 3.39^[b]; and `CC(C)CC(=O)Nc1ccnc(CON=C(c2ncc(C(F)(F)F)cc2Cl)c2ncnn2C)n1` [Example 478], with 3.06^[b].

The same data set, now with this note: HPLC, method [a]: pH 2.3 with 0.1% phosphoric acid and acetonitrile as eluent.
In the case of `CC(C)CC(=O)Nc1cccc(CON=C(c2cccs2)c2ncnn2C)n1` [Example 396], the log p is 2.78^[a];.

Still in this data set, the particulars now being: LC-MS, method [b]: pH 2.7 with 0.1% formic acid in water and acetonitrile, linear gradient 10% to 95% acetonitrile.
Regarding `CC(C)CC(=O)Nc1ccnc(CON=C(c2cccs2)c2nccn2C)n1` [Example 389], the log p was 1.59^[b].
Same read-out and setting: then `Cn1ccnc1C(=NOCc1nccc(NC(=O)C(C)(C)C)n1)c1cccs1` [Example 390], with 1.56^[b]; and `Cn1ncnc1C(=NOCc1cccc(N)n1)c1cccs1` [Example 391], with 0.82^[b].
Still for that read-out and setting: then `Cn1ncnc1C(=NOCc1cccc(NC(=O)CCc2ccccc2)n1)c1cccs1` [Example 392], with 3.17^[b]; and `CCCCCC(=O)Nc1cccc(CON=C(c2cccs2)c2ncnn2C)n1` [Example 393], with 3.23^[b].
Regarding `CCCCCOC(=O)Nc1cccc(CON=C(c2cccs2)c2ncnn2C)n1` [Example 394], the log p was 3.82^[b].
The same measure, in the same setting: the figure for `Cn1ncnc1C(=NOCc1cccc(NC(=O)C(C)(C)C)n1)c1cccs1` [Example 395] is 2.82^[b]; for `CC(C)CC(=O)Nc1cccc(CON=C(c2cccs2)c2ncnn2C)n1` [Example 396] it is 2.78^[b].
On the same count and under the same terms, the figure for `Cn1ncnc1C(=NOCc1nccc(N)n1)c1cccs1` [Example 397] is 0.47^[b].
Same read-out and setting: then `Cn1ncnc1C(=NOCc1csc(N)n1)c1cccs1` [Example 398], with 0.92^[b]; and `CCCCCC(=O)Nc1nc(CON=C(c2cccs2)c2ncnn2C)cs1` [Example 399], with 3.23^[b]; and `CCCCCOC(=O)Nc1nc(CON=C(c2cccs2)c2ncnn2C)cs1` [Example 400], with 3.53^[b].
Take `Cn1ncnc1C(=NOCc1csc(NC(=O)C(C)(C)C)n1)c1cccs1` [Example 401]: the log p was 2.8^[b].
Same read-out and setting: then `Cn1ncnc1C(=NOCc1csc(NC(=O)Cc2ccccc2)n1)c1cccs1` [Example 402], with 2.82^[b].
Still for that read-out and setting: then `Cn1ncnc1C(=NOCc1csc(NC(=O)CCc2ccccc2)n1)c1cccs1` [Example 403], with 3.09^[b].
Still for that read-out and setting: then `CC(C)CC(=O)Nc1nc(CON=C(c2cccs2)c2ncnn2C)cs1` [Example 404], with 2.73^[b]; and `CCCCCC(=O)Nc1ccnc(CON=C(c2cccs2)c2ncnn2C)n1` [Example 405], with 3^[b].
As to `CCCCCOC(=O)Nc1ccnc(CON=C(c2cccs2)c2ncnn2C)n1` [Example 406], the log p is 3.31^[b].
Still for that read-out and setting: then `Cn1ncnc1C(=NOCc1nccc(NC(=O)C(C)(C)C)n1)c1cccs1` [Example 407], with 2.59^[b]; and `Cn1ncnc1C(=NOCc1nccc(NC(=O)Cc2ccccc2)n1)c1cccs1` [Example 408], with 2.64^[b]; and `Cn1ncnc1C(=NOCc1nccc(NC(=O)CCc2ccccc2)n1)c1cccs1` [Example 409], with 2.9^[b].
With `CC(C)CC(=O)Nc1ccnc(CON=C(c2cccs2)c2ncnn2C)n1` [Example 410], the log p was 2.56^[b].
With `CCCCCOC(=O)Nc1cccc(CON=C(c2cccs2)c2nccn2C)n1` [Example 411], the log p was 2.71^[b].
On the same count and under the same terms, then `CC(C)CC(=O)Nc1cccc(CON=C(c2cccs2)c2nccn2C)n1` [Example 412], with 1.91^[b]; and `Cn1ccnc1C(=NOCc1cccc(NC(=O)C(C)(C)C)n1)c1cccs1` [Example 413], with 1.78^[b].
Still for that read-out and setting: the figure for `Cn1ccnc1C(=NOCc1cccc(NC(=O)Cc2ccccc2)n1)c1cccs1` [Example 414] is 2.05^[b].
